Measurements as given in patent US20230265116A1, “DEGRADATION OF (EGFR) BY CONJUGATION OF EGFR INHIBITORS WITH E3 LIGASE LIGAND AND METHODS OF USE” (BEIGENE, LTD., priority 2020, published 2023).

Assays:
[1] = target: T1, EGFR L858R/T790M/C797S (BaF3-LTC cells) (Homo sapiens, UniProt P00533, C797S/L858R/T790M); assay: EGFR degradation HTRF assay, BaF3-LTC cells; assay type: cell-based; details: BaF3-LTC, 16h treatment; for Dmax: maximum percentage of degradation, read-out: LTC Dmax (%); for DC50: read-out: LTC DC50
T1 construct: expressed in transfected cells; host or cells: BaF3
In short: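 Cells treated 16 h at 37 °C, 5% CO2 in medium with 0.2% DMSO; top final concentration 10 uM, 5-fold dilution, 8 doses. Lysates read by HTRF (665/620 nm); degradation % versus DMSO high control, DC50 from four-parameter fit, Dmax as maximal degradation.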

[2] = system: EGFR Del19/T790M/C797S (BaF3-DTC cells); assay: EGFR degradation HTRF assay, BaF3-DTC cells; assay type: cell-based; details: 16h treatment; for DTC Dmax (%): maximum percentage of degradation; for DC50: read-out: DTC DC50
Description: BaF3 WT(wild type), BaF3-LTC(L858R/T790M/C797S) and BaF3-DTC(Del19/T790M/C797S) cells are treated with compounds diluted in 0.2% DMSO cell culture medium and incubate for 16h, 37° C., 5% CO2, H1975-#36, H1975-#28, H1975-#23 and HCC827 cells are treated with compounds diluted in 0.2% DMSO cell culture medium on day 2, incubate for 16h, 37° C., 5% CO2.the final concentriation of compounds in all assay is start with 10 uM, 5-fold dilution, total 8 doses were included.
After 16h treatment, add HTRF lysis buffer to each well; seal the plate and incubate 1 hour at room temperature on a plate shaker; Once the cells are lysed, 16 μL of cell lysate are transferred to a PE 384-well HTRF detection plate; 4 μL of pre-mixed HTRF antibodies are added to each well; Cover the plate with a plate sealer, spin 1000 rpm for 1 min, Incubate overnight at room temperature; Read on BMG PheraStar with HTRF protocol (337 nm-665 nm-620 nm).
The inhibition (degradation) percentage of the compound was calculated by the following equation: Inhibition percentage of Compound=100-100×(Signal-low control)/(High control-low control), wherein signal=each test compound group
High control=Cell group with added DMSO and without compound, indicating microplate readings without EGFR degradation;
Dmax is the maximum percentage of inhibition (degradation).
The IC50 (DC50) value of a compound can be obtained by fitting the following equation
Y=Bottom+(TOP−Bottom)/(1+((IC50/X)^hillslope))
Wherein, X and Y are known values, and IC50, Hillslope, Top and Bottom are the parameters obtained by fitting with software. Y is the inhibition percentage (calculated from the equation), X is the concentration of the compound; IC50 is the concentration of the compound when the 50% inhibition is reached. The smaller the IC50 value is, the stronger the inhibitory ability of the compound is. Vice versa, the higher the IC50 value is, the weaker the inhibitory ability of the compound is; Hillslope represents the slope of the fitted curve, generally around 1*; Bottom represents the minimum value of the curve obtained by data fitting, which is generally 0%±20%; Top represents the maximum value of the curve obtained by data fitting, which is generally 100%±20%. The experimental data were fitted by calculating and analyzing with Dotmatics data analysis software.

T1 sequence (P00533 25-1210 T790M/C797S/L858R): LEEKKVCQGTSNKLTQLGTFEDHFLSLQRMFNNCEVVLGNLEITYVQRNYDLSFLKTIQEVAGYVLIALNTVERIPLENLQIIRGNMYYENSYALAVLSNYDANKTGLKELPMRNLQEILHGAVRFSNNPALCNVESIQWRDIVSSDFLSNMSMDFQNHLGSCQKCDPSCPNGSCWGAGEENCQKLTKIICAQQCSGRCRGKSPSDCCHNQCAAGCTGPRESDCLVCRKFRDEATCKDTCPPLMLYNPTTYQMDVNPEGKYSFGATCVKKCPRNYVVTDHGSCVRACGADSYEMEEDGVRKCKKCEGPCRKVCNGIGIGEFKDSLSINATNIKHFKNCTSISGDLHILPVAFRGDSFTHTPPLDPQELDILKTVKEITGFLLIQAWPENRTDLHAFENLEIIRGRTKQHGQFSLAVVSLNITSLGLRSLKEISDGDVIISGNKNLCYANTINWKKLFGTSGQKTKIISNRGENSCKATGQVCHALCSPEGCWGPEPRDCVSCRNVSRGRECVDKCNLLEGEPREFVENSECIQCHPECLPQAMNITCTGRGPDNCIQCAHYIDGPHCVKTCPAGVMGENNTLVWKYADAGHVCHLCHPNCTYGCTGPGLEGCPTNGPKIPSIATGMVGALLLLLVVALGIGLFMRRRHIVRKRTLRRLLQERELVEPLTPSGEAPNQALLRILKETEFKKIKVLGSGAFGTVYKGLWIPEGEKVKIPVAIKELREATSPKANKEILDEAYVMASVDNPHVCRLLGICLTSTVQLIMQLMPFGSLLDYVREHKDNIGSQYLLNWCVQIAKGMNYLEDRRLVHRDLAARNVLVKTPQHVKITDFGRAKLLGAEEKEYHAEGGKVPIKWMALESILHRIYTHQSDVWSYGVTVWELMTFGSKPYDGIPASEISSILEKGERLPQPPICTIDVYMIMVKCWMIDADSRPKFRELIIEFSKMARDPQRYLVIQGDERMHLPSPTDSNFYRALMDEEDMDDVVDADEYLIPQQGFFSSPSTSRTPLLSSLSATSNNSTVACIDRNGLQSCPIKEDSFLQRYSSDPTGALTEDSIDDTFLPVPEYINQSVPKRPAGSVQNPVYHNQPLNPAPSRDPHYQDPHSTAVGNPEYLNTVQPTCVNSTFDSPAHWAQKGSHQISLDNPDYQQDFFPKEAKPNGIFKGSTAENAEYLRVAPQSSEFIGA

| SMILES | Dmax [1] | DC50 [1] | DC50 [2] | DTC Dmax (%) [2] |
| --- | --- | --- | --- | --- |
| COc1cc(N2CCC(N3CCN(CCc4ccc(C5CCC(=O)NC5=O)c(F)c4)CC3)CC2)c(C)cc1Nc1ncc(Br)c(Nc2ccc3nccnc3c2P(C)(C)=O)n1 (stereo not drawn) [Example 214, 3-(4-(2-(4-(1-(4-((5-bromo-4-((5-(dimethylphosphoryl)quinoxalin-6-yl)amino)pyrimidin-2-yl)amino)-5-methoxy-2-methylphenyl)piperidin-4-yl)piperazin-1-yl)ethyl)-2-fluorophenyl)piperidine-2,6-dione] | 75% | 54.9 nM | 13.7 nM | 85.16% |
| CCc1cc(Nc2ncc(Br)c(Nc3ccc4nc(C(C)C)ccc4c3P(C)(C)=O)n2)c(OC)cc1N1CCC(N2CCN(CCc3cc(F)c(C4CCC(=O)NC4=O)c(F)c3)CC2)CC1 (stereo not drawn) [Example 316, 3-(4-(2-(4-(1-(4-((5-bromo-4-((5-(dimethylphosphoryl)-2-isopropylquinolin-6-yl)amino)pyrimidin-2-yl)amino)-2-ethyl-5-methoxyphenyl)piperidin-4-yl)piperazin-1-yl)ethyl)-2,6-difluorophenyl)piperidine-2,6-dione] | 79% | 48.7 nM | 9.59 nM | 89.57% |
| CCc1cc(Nc2ncc(Br)c(Nc3ccc4nc(C)ccc4c3P(C)(C)=O)n2)c(OC)cc1N1CCC(N2CCN(C(=O)C3CN(c4ccc5c(c4)C(C)(C)C(=O)N5C4CCC(=O)NC4=O)C3)CC2)CC1 (stereo not drawn) [Example 409, 3-(5-(3-(4-(1-(4-((5-bromo-4-((5-(dimethylphosphoryl)-2-methylquinolin-6-yl)amino)pyrimidin-2-yl)amino)-2-ethyl-5-methoxyphenyl)piperidin-4-yl)piperazine-1-carbonyl)azetidin-1-yl)-3,3-dimethyl-2-oxoindolin-1-yl)piperidine-2,6-dione] | 96.1% | 1.46 nM | 1.23 nM | 95.3% |
| CCc1cc(Nc2ncc(Br)c(Nc3ccc4nc(C)ccc4c3P(C)(C)=O)n2)c(OC)cc1N1CCC(N2CCN(C(=O)C34CCC(Nc5cc(F)c(C6CCC(=O)NC6=O)c(F)c5)(CC3)C4)CC2)CC1 (stereo not drawn) [Example 699, 3-(4-((4-(4-(1-(4-((5-bromo-4-((5-(dimethylphosphoryl)-2-methylquinolin-6-yl)amino)pyrimidin-2-yl)amino)-2-ethyl-5-methoxyphenyl)piperidin-4-yl)piperazine-1-carbonyl)bicyclo[2.2.1]heptan-1-yl)amino)-2,6-difluorophenyl)piperidine-2,6-dione] | 89.2% | 6.06 nM | 3.04 nM | 85.08% |
| CCc1cc(Nc2ncc(Br)c(Nc3ccc4cc(C)ncc4c3P(C)(C)=O)n2)c(OC)cc1N1CCC(N2CCN(CCc3cc(F)c(C4CCC(=O)NC4=O)c(F)c3)CC2)CC1 (stereo not drawn) [Example 200, 3-(4-(2-(4-(1-(4-((5-bromo-4-((8-(dimethylphosphoryl)-3-methylisoquinolin-7-yl)amino)pyrimidin-2-yl)amino)-2-ethyl-5-methoxyphenyl)piperidin-4-yl)piperazin-1-yl)ethyl)-2,6-difluorophenyl)piperidine-2,6-dione] | 88.6% | 11.1 nM | 2.8 nM | 93.3% |
| CCc1cc(Nc2ncc(Br)c(Nc3ccc4nc(C)ccc4c3P(C)(C)=O)n2)c(OC)cc1N1CCC(N2CCN(CCC3CCN(c4cc(F)c(C5CCC(=O)NC5=O)c(F)c4)CC3)CC2)CC1 (stereo not drawn) [Example 312, 3-(4-(4-(2-(4-(1-(4-((5-bromo-4-((5-(dimethylphosphoryl)-2-methylquinolin-6-yl)amino)pyrimidin-2-yl)amino)-2-ethyl-5-methoxyphenyl)piperidin-4-yl)piperazin-1-yl)ethyl)piperidin-1-yl)-2,6-difluorophenyl)piperidine-2,6-dione] | 86.1% | 16.1 nM | 8.17 nM | 88.59% |
| COc1cc(N2CCC(N3CCN(CCc4cc(F)c(C5CCC(=O)NC5=O)c(F)c4)CC3)CC2)c(C(C)O)cc1Nc1ncc(Br)c(Nc2ccc3nccnc3c2P(C)(C)=O)n1 (stereo not drawn) [Example 430, 3-(4-(2-(4-(1-(4-((5-bromo-4-((5-(dimethylphosphoryl)quinoxalin-6-yl)amino)pyrimidin-2-yl)amino)-2-(1-hydroxyethyl)-5-methoxyphenyl)piperidin-4-yl)piperazin-1-yl)ethyl)-2,6-difluorophenyl)piperidine-2,6-dione] | 94.5% | 4.5 nM | 2.64 nM | 97.63% |
| COc1cc(N2CCC(N3CCN(CCC4CCN(c5cc(F)c(C6CCC(=O)NC6=O)c(F)c5)CC4)CC3=O)CC2)c(C)cc1Nc1ncc(Br)c(Nc2ccc3nccnc3c2P(C)(C)=O)n1 (stereo not drawn) [Example 216, 3-(4-(4-(2-(4-(1-(4-((5-bromo-4-((5-(dimethylphosphoryl)quinoxalin-6-yl)amino)pyrimidin-2-yl)amino)-5-methoxy-2-methylphenyl)piperidin-4-yl)-3-oxopiperazin-1-yl)ethyl)piperidin-1-yl)-2,6-difluorophenyl)piperidine-2,6-dione] | 87.7% | 23.3 nM | 5.56 nM | 93.59% |

More lines, main results first:

| Dmax [1] | DC50 [1] | DC50 [2] | SMILES | DTC Dmax (%) [2] |
| --- | --- | --- | --- | --- |
| 86.9% | 43 nM | 23.8 nM | CCc1cc(Nc2ncc(Br)c(Nc3ccc4nccnc4c3P(C)(C)=O)n2)c(OC)cc1N1CCC(N2CCN(C[C@H]3CCN(c4ccc5c(c4)C(=O)N(C4CCC(=O)NC4=O)C5=O)C3)CC2)CC1 (stereo partly drawn) [Example 232, 5-((R)-3-((4-(1-(4-((5-bromo-4-((5-(dimethylphosphoryl)quinoxalin-6-yl)amino)pyrimidin-2-yl)amino)-2-ethyl-5-methoxyphenyl)piperidin-4-yl)piperazin-1-yl)methyl)pyrrolidin-1-yl)-2-(2,6-dioxopiperidin-3-yl)isoindoline-1,3-dione] | 86.38% |
| 82% | 12.9 nM | 4.27 nM | CCc1cc(Nc2ncc(Br)c(Nc3ccc4nccnc4c3P(C)(C)=O)n2)c(OC)cc1N1CCC(N2CCN(C(=O)C3CN(c4ccc5nn(C6CCC(=O)NC6=O)cc5c4)C3)CC2)CC1 (stereo not drawn) [Example 315, 3-(5-(3-(4-(1-(4-((5-bromo-4-((5-(dimethylphosphoryl)quinoxalin-6-yl)amino)pyrimidin-2-yl)amino)-2-ethyl-5-methoxyphenyl)piperidin-4-yl)piperazine-1-carbonyl)azetidin-1-yl)-2H-indazol-2-yl)piperidine-2,6-dione] | 89.47% |
| 74.6% | 63.3 nM | 43.3 nM | CCc1cc(Nc2ncc(Br)c(Nc3ccc4nccnc4c3P(C)(C)=O)n2)c(OC)cc1N1CCC(N2CCN(C3CCN(c4ccc(C5CCC(=O)NC5=O)cc4)C3)CC2)CC1 (stereo not drawn) [Example 281, 3-(4-(3-(4-(1-(4-((5-bromo-4-((5-(dimethylphosphoryl)quinoxalin-6-yl)amino)pyrimidin-2-yl)amino)-2-ethyl-5-methoxyphenyl)piperidin-4-yl)piperazin-1-yl)pyrrolidin-1-yl)phenyl)piperidine-2,6-dione] | 67.1% |
| 75.5% | 81.4 nM | 61.2 nM | CCc1cc(Nc2ncc(Br)c(Nc3ccc4nccnc4c3P(C)(C)=O)n2)c(OC)cc1N1CCC(N2CCN(C[C@H]3C[C@H](c4ccc(NC5CCC(=O)NC5=O)cc4)C3)CC2)CC1 (stereo partly drawn) [Example 284, 3-((4-((1r,3r)-3-((4-(1-(4-((5-bromo-4-((5-(dimethylphosphoryl)quinoxalin-6-yl)amino)pyrimidin-2-yl)amino)-2-ethyl-5-methoxyphenyl)piperidin-4-yl)piperazin-1-yl)methyl)cyclobutyl)phenyl)amino)piperidine-2,6-dione] | 77.49% |
